Measurements reported in patent US20220267736A1, “PLURIPOTENT STEM CELL AGGREGATION SUPPRESSOR” (KANEKA CORPORATION, priority 2017, published 2022).

System: human iPS cells (TkDN4-M)
Assay: Cell aggregate size distribution (widest portion) from micrographs during suspension culture
Format: cell-based
Conditions: cytochalasin D 20 nM, jasplakinolide 20 nM, demecolcine 10 ng/mL
Protocol: Cell suspensions were prepared in the same manner as in Example 2, and separately, the concentrations of the suppressors of cell aggregation were adjusted so that the final concentration of demecolcine (same as above) was 10 mg/mL (26.9 mM), the final concentration of cytochalasin D (same as above) was 0.51 mg/mL (1 mM), the concentration of DMSO (the same as above) was the stock concentration, or the final concentration of jasplakinolide (Cayman, 11705) was 0.14 mg/mL (0.2 mM). Then the concentration-adjusted cell aggregation suppressors were added to the cell suspensions so that the final concentration of demecolcine was 10 ng/mL, the final concentration of cytochalasin D was 20 nM, the final concentration of DMSO was 1% (v/v), or the final concentration of jasplakinolide was 20 nM, and the cells were seeded at a rate of 4 mL/well in a 6-well plate for suspension culture (Sumitomo Bakelite Co., Ltd., Japan). The cell-seeded plate was subjected to a swirling culture on a rotary shaker (OPTIMA, Inc., Japan) at a speed of 90 rpm along the horizontal plane to draw a circle with a swirling width (diameter) of 25 mm and cells were subjected to suspension culture under the environment of 5% CO2 and 37° C. After the next day of culture (Day 1 of culture), the culture medium was exchanged daily with a fresh culture medium (Essential 8™ culture medium containing BSA (Wako Pure Chemical Industries, Ltd.) at a final concentration of 5 mg/mL), and the culture was continued until 5 days after the start of culture. Images were obtained by phase contrast microscopy every day during culture. While 182 to 252 cell aggregates in images obtained on Day 1 of culture being observed and compared using a micrograph scale, the width (referred to as “φ”) of the widest portion of each cell aggregate was measured, distribution thereof was examined, and average±standard deviation was calculated. The concentration of glucose contained in the culture supernatant collected at the time of culture medium exchange was measured with biosensor BF-5iD (Prince Measuring Equipment Co., Ltd.) to calculate glucose consumption.

[1] = Day 1, size range 40− μm, DMSO 1%
[2] = Day 1, size range 60− μm, DMSO 1%
[3] = Day 1, size range 80− μm, DMSO 1%
[4] = Day 1, size range 100− μm, DMSO 1%
[5] = Day 1, size range 120− μm, DMSO 1%
[6] = Day 1, size range 140− μm, DMSO 1%
[7] = Day 1, size range 160− μm, DMSO 1%
[8] = Day 1, size range 180− μm, DMSO 1%
[9] = Day 1, size range 200− μm, DMSO 1%
[10] = Day 1, size range 220− μm, DMSO 1%
[11] = Day 1, size range 240− μm, DMSO 1%
[12] = Day 1, size range 260− μm, DMSO 1%
[13] = Day 1, size range 280− μm, DMSO 1%
[14] = Day 1, size range 300− μm, DMSO 1%

In the case of `CN[C@H]1CCc2cc(OC)c(OC)c(OC)c2-c2ccc(OC)c(=O)cc21` [demecolcine], the “percentage of cell aggregates whose size (diameter) was 40 μm or more and 300 μm or less, relative to the total cell aggregate count” value (Day 1, DMSO 1%) is reported as 100%, the “percentage of cell aggregates whose size (diameter) was 60 μm or more and 300 μm or less” value (Day 1, DMSO 1%) is reported as 97.3% and the “percentage of cell aggregates whose size (diameter) was 80 μm or more and 300 μm or less” value (Day 1, DMSO 1%) is reported as 93.5%. For the same compound, the “percentage of cell aggregates whose size (diameter) was 100 μm or more and 300 μm or less” value (Day 1, DMSO 1%) was 92.4%, the “Number of cell aggregates by size” value [1] was 5 and the “Percentage of cell aggregates by size” value [1] was 2.7%. The “Number of cell aggregates by size” value [2] was 7, the “Percentage of cell aggregates by size” value [2] was 3.8% and the “Number of cell aggregates by size” value [3] was 2. The “Percentage of cell aggregates by size” value [3] was 1.1%, the “Number of cell aggregates by size” value [4] was 0 and the “Percentage of cell aggregates by size” value [4] was 0.0%. The “Number of cell aggregates by size” value [5] was 2, the “Percentage of cell aggregates by size” value [5] was 1.1% and the “Number of cell aggregates by size” value [6] was 16. The “Percentage of cell aggregates by size” value [6] was 8.8%, the “Number of cell aggregates by size” value [7] was 37 and the “Percentage of cell aggregates by size” value [7] was 20.3%. For the same compound, the “Number of cell aggregates by size” value [8] was 45, the “Percentage of cell aggregates by size” value [8] was 24.7% and the “Number of cell aggregates by size” value [9] was 38. The “Percentage of cell aggregates by size” value [9] was 20.9%, the “Number of cell aggregates by size” value [10] was 19 and the “Percentage of cell aggregates by size” value [10] was 10.4%. For the same compound, the “Number of cell aggregates by size” value [11] was 8, the “Percentage of cell aggregates by size” value [11] was 4.4% and the “Number of cell aggregates by size” value [12] was 2. For the same compound, the “Percentage of cell aggregates by size” value [12] was 1.1%, the “Number of cell aggregates by size” value [13] was 0 and the “Percentage of cell aggregates by size” value [13] was 0.0%. For the same compound, the “Number of cell aggregates by size” value [14] was 1, the “Percentage of cell aggregates by size” value [14] was 0.5% and the “average ± standard deviation of cell aggregate sizes (diameters)” value (Day 1 of culture, DMSO 1% (v/v), Y-27632 10 μM) was 184.9±44.9 μm.
